# Molecular target: unphosphorylated-BTK kinase domain (UP-BTK), GST-tagged human BTK (389-659aa) (Homo sapiens (Human), UniProt Q06187)
# Experiment: BTK Kinase Lanthascreen Binding Assay
# Settings: Lanthascreen binding, 60 minutes incubation; pIC50 = negative log of the IC50 in molar
# Experimental: BTK Kinase Lanthascreen Binding Assay:
# A BTK kinase lanthascreen binding assay monitors compound binding to unphosphorylated-BTK kinase domain (UP-BTK), by competing with a fluorescent labeled tracer. […] Data were analyzed using Xlfit™ version 5.3 from ID Business Solutions (Guildford), Microsoft Excel add-in. pIC50 refers to the negative log of the IC50 in molar.
# unphosphorylated-BTK kinase domain (UP-BTK), GST-tagged human BTK (389-659aa), sequence (Q06187 389-659): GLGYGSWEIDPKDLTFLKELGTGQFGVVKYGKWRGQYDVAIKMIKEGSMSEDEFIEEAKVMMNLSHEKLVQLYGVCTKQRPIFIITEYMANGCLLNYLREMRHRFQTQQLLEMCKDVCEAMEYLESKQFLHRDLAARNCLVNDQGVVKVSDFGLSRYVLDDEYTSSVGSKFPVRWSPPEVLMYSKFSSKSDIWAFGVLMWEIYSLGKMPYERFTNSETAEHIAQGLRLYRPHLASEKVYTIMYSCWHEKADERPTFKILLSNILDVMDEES
row,Compound,BTK_I_binding pIC50
1,"C=CC(=O)N[C@H]1CCC[C@H]1NC(=O)c1sc2nccc3c2c1NC(=O)N3c1cnc(OCC(C)C)cc1C (single isomer, unassigned) [Example 373, N-((1R,2S)-2-Acrylamidocyclopentyl)-5-(*S)-(6-isobutoxy-4-methylpyridin-3-yl)-4-oxo-4,5-dihydro-3H-1-thia-3,5,8-triazaacenaphthylene-2-carboxamide]",8.25
2,"Cc1cc(OC2CCCC2)ncc1N1C(=O)Nc2c(C(=O)N[C@@H]3CCC[C@@H]3N)sc3nccc1c23 (single isomer, unassigned) [Example 374, N-((1R,2S)-2-Aminocyclopentyl)-5-(*S)-(6-(cyclopentyloxy)-4-methylpyridin-3-yl)-4-oxo-4,5-dihydro-3H-1-thia-3,5,8-triazaacenaphthylene-2-carboxamide]",6.82
3,"Cc1cc(Oc2ccccc2)ncc1N1C(=O)Nc2c(C(=O)N[C@@H]3CCCC[C@@H]3N)sc3nccc1c23 (single isomer, unassigned) [Example 375, N-((1R,2S)-2-Aminocyclohexyl)-5-(*S)-(4-methyl-6-phenoxypyridin-3-yl)-4-oxo-4,5-dihydro-3H-1-thia-3,5,8-triazaacenaphthylene-2-carboxamide]",6.92
4,"CC(=O)N[C@H]1CCCC[C@H]1NC(=O)c1sc2nccc3c2c1NC(=O)N3c1cnc(Oc2ccccc2)cc1C (single isomer, unassigned) [Example 377, N-((1R,2S)-2-Acetamidocyclohexyl)-5-(*S)-(4-methyl-6-phenoxypyridin-3-yl)-4-oxo-4,5-dihydro-3H-1-thia-3,5,8-triazaacenaphthylene-2-carboxamide]",6.83
5,"CC(=O)N[C@H]1CCC[C@H]1NC(=O)c1sc2nccc3c2c1NC(=O)N3c1cnc(Oc2ccccc2)cc1C (single isomer, unassigned) [Example 378, N-((1R,2S)-2-Acetamidocyclopentyl)-5-(*S)-(4-methyl-6-phenoxypyridin-3-yl)-4-oxo-4,5-dihydro-3H-1-thia-3,5,8-triazaacenaphthylene-2-carboxamide]",6.39
6,"CCC(=O)N[C@H]1CCCC[C@H]1NC(=O)c1sc2nccc3c2c1NC(=O)N3c1ccc(Oc2ccccc2)cc1C (single isomer, unassigned) [Example 380, 5-(*S)-(2-Methyl-4-phenoxyphenyl)-4-oxo-N-((1R,2S)-2-propionamidocyclohexyl)-4,5-dihydro-3H-1-thia-3,5,8-triazaacenaphthylene-2-carboxamide]",7.20
7,"C=CC(=O)N[C@@H]1CCC[C@H]1NC(=O)c1sc2nccc3c2c1NC(=O)N3c1cnc(CC(C)C)cc1C (single isomer, unassigned) [Example 382, N-((1R,2R)-2-Acrylamidocyclopentyl)-5-(*S)-(6-isobutyl-4-methylpyridin-3-yl)-4-oxo-4,5-dihydro-3H-1-thia-3,5,8-triazaacenaphthylene-2-carboxamide]",7.68
8,"CC(=O)N[C@H]1CC[C@@H](NC(=O)c2sc3nccc4c3c2NC(=O)N4c2cnc(Oc3ccccc3)cc2C)CC1 (single isomer, unassigned) [Example 389, N-((1S,4S)-4-Acetamidocyclohexyl)-5-(*S)-(4-methyl-6-phenoxypyridin-3-yl)-4-oxo-4,5-dihydro-3H-1-thia-3,5,8-triazaacenaphthylene-2-carboxamide]",7.30
9,"CC(=O)N[C@@H]1CC[C@H](NC(=O)c2sc3nccc4c3c2NC(=O)N4c2cnc(Oc3ccccc3)cc2C)C1 (single isomer, unassigned) [Example 391, N-((1S,3R)-3-Acetamidocyclopentyl)-5-(*S)-(4-methyl-6-phenoxypyridin-3-yl)-4-oxo-4,5-dihydro-3H-1-thia-3,5,8-triazaacenaphthylene-2-carboxamide]",7.86
10,"CC(=O)N[C@@H]1CC[C@@H](NC(=O)c2sc3nccc4c3c2NC(=O)N4c2cnc(Oc3ccccc3)cc2C)C1 (single isomer, unassigned) [Example 392, N-((1R,3R)-3-Acetamidocyclopentyl)-5-(*S)-(4-methyl-6-phenoxypyridin-3-yl)-4-oxo-4,5-dihydro-3H-1-thia-3,5,8-triazaacenaphthylene-2-carboxamide]",7.34
11,"Cc1cc(OC2CCCC2)ncc1N1C(=O)Nc2c(C(=O)N[C@@H]3CC[C@H](N)C3)sc3nccc1c23 (single isomer, unassigned) [Example 394, N-((1R,3S)-3-Aminocyclopentyl)-5-(*S)-(6-(cyclopentyloxy)-4-methylpyridin-3-yl)-4-oxo-4,5-dihydro-3H-1-thia-3,5,8-triazaacenaphthylene-2-carboxamide]",6.70
12,"Cc1cc(OCC(C)C)ncc1N1C(=O)Nc2c(C(=O)N[C@@H]3CCC[C@@H]3N)sc3nccc1c23 (single isomer, unassigned) [Example 397, N-((1R,2S)-2-Aminocyclopentyl)-5-(*S)-(6-isobutoxy-4-methylpyridin-3-yl)-4-oxo-4,5-dihydro-3H-1-thia-3,5,8-triazaacenaphthylene-2-carboxamide]",6.62
13,"C=CC(=O)N[C@@H]1CCCC[C@H]1NC(=O)c1sc2nccc3c2c1NC(=O)N3c1cnc(CC(C)C)cc1C (single isomer, unassigned) [Example 404, N-((1R,2R)-2-Acrylamidocyclohexyl)-5-(*S)-(6-isobutyl-4-methylpyridin-3-yl)-4-oxo-4,5-dihydro-3H-1-thia-3,5,8-triazaacenaphthylene-2-carboxamide]",6.21
14,"Cc1cc(OCC(C)C)ncc1N1C(=O)Nc2c(C(=O)N[C@@H]3CC[C@H](N)C3)sc3nccc1c23 (single isomer, unassigned) [Example 405, N-((1R,3S)-3-Aminocyclopentyl)-5-(*S)-(6-isobutoxy-4-methylpyridin-3-yl)-4-oxo-4,5-dihydro-3H-1-thia-3,5,8-triazaacenaphthylene-2-carboxamide]",6.16

# Further lines, results first:
row,BTK_I_binding pIC50,Compound
1,7.98,"CCC(=O)N[C@H]1CCC[C@@H](NC(=O)c2sc3nccc4c3c2NC(=O)N4c2cnc(Oc3ccccc3)cc2C)C1 (single isomer, unassigned) [Example 385, 5-(*S)-(4-Methyl-6-phenoxypyridin-3-yl)-4-oxo-N-((1R,3S)-3-propionamidocyclohexyl)-4,5-dihydro-3H-1-thia-3,5,8-triazaacenaphthylene-2-carboxamide]"
2,7.64,"CCC(=O)N[C@@H]1CC[C@@H](NC(=O)c2sc3nccc4c3c2NC(=O)N4c2cnc(Oc3ccccc3)cc2C)C1 (single isomer, unassigned) [Example 388, 5-(*S)-(4-Methyl-6-phenoxypyridin-3-yl)-4-oxo-N-((1R,3R)-3-propionamidocyclopentyl)-4,5-dihydro-3H-1-thia-3,5,8-triazaacenaphthylene-2-carboxamide]"
3,8.04,"CCC(=O)N[C@@H]1CC[C@H](NC(=O)c2sc3nccc4c3c2NC(=O)N4c2cnc(Oc3ccccc3)cc2C)C1 (single isomer, unassigned) [Example 390, 5-(*S)-(4-Methyl-6-phenoxypyridin-3-yl)-4-oxo-N-((1S,3R)-3-propionamidocyclopentyl)-4,5-dihydro-3H-1-thia-3,5,8-triazaacenaphthylene-2-carboxamide]"
4,6.66,"CC(=O)N[C@H]1CC[C@H](NC(=O)c2sc3nccc4c3c2NC(=O)N4c2cnc(Oc3ccccc3)cc2C)C1 (single isomer, unassigned) [Example 395, N-((1S,3S)-3-Acetamidocyclopentyl)-5-(*S)-(4-methyl-6-phenoxypyridin-3-yl)-4-oxo-4,5-dihydro-3H-1-thia-3,5,8-triazaacenaphthylene-2-carboxamide]"
5,6.51,"CCC(=O)N[C@H]1CC[C@H](NC(=O)c2sc3nccc4c3c2NC(=O)N4c2cnc(Oc3ccccc3)cc2C)C1 (single isomer, unassigned) [Example 399, 5-(*S)-(4-Methyl-6-phenoxypyridin-3-yl)-4-oxo-N-((1S,3S)-3-propionamidocyclopentyl)-4,5-dihydro-3H-1-thia-3,5,8-triazaacenaphthylene-2-carboxamide]"
6,6.46,"CC(=O)N[C@H]1CCC[C@H](NC(=O)c2sc3nccc4c3c2NC(=O)N4c2cnc(Oc3ccccc3)cc2C)C1 (single isomer, unassigned) [Example 400, N-((1S,3S)-3-Acetamidocyclohexyl)-5-(*S)-(4-methyl-6-phenoxypyridin-3-yl)-4-oxo-4,5-dihydro-3H-1-thia-3,5,8-triazaacenaphthylene-2-carboxamide]"
7,6.38,"CCC(=O)N[C@H]1CCC[C@H](NC(=O)c2sc3nccc4c3c2NC(=O)N4c2cnc(Oc3ccccc3)cc2C)C1 (single isomer, unassigned) [Example 402, 5-(*S)-(4-Methyl-6-phenoxypyridin-3-yl)-4-oxo-N-((1S,3S)-3-propionamidocyclohexyl)-4,5-dihydro-3H-1-thia-3,5,8-triazaacenaphthylene-2-carboxamide]"
8,6.26,"CC(=O)N[C@H]1CC[C@@H](NC(=O)c2sc3nccc4c3c2NC(=O)N4c2cnc(Oc3ccccc3)cc2C)C1 (single isomer, unassigned) [Example 403, N-((1R,3S)-3-Acetamidocyclopentyl)-5-(*S)-(4-methyl-6-phenoxypyridin-3-yl)-4-oxo-4,5-dihydro-3H-1-thia-3,5,8-triazaacenaphthylene-2-carboxamide]"
9,6.05,"CC(=O)NC1CCC[C@H](NC(=O)c2sc3nccc4c3c2NC(=O)N4c2cnc(Oc3ccccc3)cc2C)C1 (single isomer, unassigned) [Example 407, N-((1S,3R)-3-Acetamidocyclohexyl)-5-(*S)-(4-methyl-6-phenoxypyridin-3-yl)-4-oxo-4,5-dihydro-3H-1-thia-3,5,8-triazaacenaphthylene-2-carboxamide]"
